Where “and” joins values, the source holds several entries; their conditions need not be identical. Equal values may be shown once. Read-outs that look alike come from different tables or passages of the source.
Test system: lipase
Assay: Lipase/lipolysis assay (EnzChek Lipase Substrate, quenched BODIPY-fatty acid conjugate) on stored human milk; further: test concentration or dose not given here

Molecule	Lipase (RFU)	Lipase (RFU) ((hydrochloride))
O=C(O)C[C@@H](O)C(=O)O [D-Malic Acid]	752.7528 RFU	
c1cncc([C@@H]2CCCCN2)c1 (racemic) [(±) Anabasine]	1022.058 RFU	
Lignin	849.2641 RFU	
Isobergapten	1247.074 RFU	
Oc1cc(O)c2c(c1)OC(c1ccc(O)c(O)c1)C(O)C2O (centres unmarked) [Leucocyanidin]	957.6226 RFU	
CCO[C@@H]1O[C@H](C(=O)O)[C@@H](O)[C@H](O)[C@H]1O [Ethyl glucuronide]	1053.076 RFU	
CC1=C(C)C(=O)C(CC[C@](C)(O)CCC[C@H](C)CCC[C@H](C)CCCC(C)C)=C(C)C1=O [D-α-Tocopherylquinone]	598.2224 RFU	
CCOP(=O)(O)OCC [Diethyl phosphate]	1033.984 RFU	
O=C(O)C[C@H](O)C(=O)O [L-Malic Acid]	1144.049 RFU	
CCCCCC/C=C\CCCCCCCCCCCC(=O)O [Paullinic acid]	1192.519 RFU	
O=P(O)(O)O[C@H]1O[C@H](CO)[C@@H](O)[C@H](O)[C@H]1O [D-Glucose-1-Phosphate]	853.7765 RFU and 929.0604 RFU	
CC(C)=CCc1c(O)c(CC=C(C)C)c2oc3c(O)cccc3c(=O)c2c1O [Compound 8-Deoxygartanin]	1168.142 RFU	
Dextrin	915.3079 RFU	
C[C@@]12C[C@H](c3ccoc3)O[C@@]13C[C@H](OC3=O)[C@H]1[C@H]2C[C@@H]2C[C@H]1C(=O)O2 [Diosbulbin B]	951.5417 RFU	
Lupeol acetate	966.2407 RFU	
CCCCCCCCCCCCCC(=O)O[C@H](CC(=O)[O-])C[N+](C)(C)C [Tetradecanoylcarnitine]	951.8251 RFU	
COc1ccc([C@@H]2CC(=O)c3c(O)cc(O[C@@H]4O[C@H](CO[C@@H]5O[C@@H](C)[C@H](O)[C@@H](O)[C@H]5O)[C@@H](O)[C@H](O)[C@H]4O)cc3O2)cc1 [Didymin]	1064.164 RFU	
CC(=O)C1=CC[C@H]2[C@@H]3CCC4=CC(=O)CC[C@]4(C)[C@H]3CC[C@]12C [Compound 16-Dehydroprogesterone]	1000.658 RFU	
C[C@H](CCC(=O)O)[C@H]1CC[C@H]2[C@@H]3[C@H](O)C[C@H]4C[C@H](O)CC[C@]4(C)[C@H]3C[C@H](O)[C@]12C [Allocholic acid]	1000.774 RFU	
Nc1ncnc2c1ncn2[C@@H]1O[C@H](CSCC[C@H](N)C(=O)O)[C@@H](O)[C@H]1O [SAH]	641.7279 RFU	
O=C(O)[C@@H]1C[C@H](O)CN1 [cis-4-Hydroxy-L-proline]	944.0714 RFU	
O=C[C@H](O)[C@H]1OC(=O)[C@@H](O)[C@H]1O [D-Glucuronic acid lactone]	1111.254 RFU	
O.O.OC[C@H]1O[C@H](O[C@H]2O[C@H](CO)[C@@H](O)[C@H](O)[C@H]2O)[C@H](O)[C@@H](O)[C@@H]1O [D-(+)-Trehalose dihydrate]	1045.976 RFU	
COc1ccc2[nH]cc(CCO)c2c1 [5-Methoxytryptophol]	1031.531 RFU	
COc1cc(COC(=O)CCCC/C=C/C(C)C)ccc1O [Capsiate]	1078.823 RFU	

Molecule	Lipase (RFU)	Lipase (RFU) ((hydrochloride))
N[C@@H](C(=O)O)[C@@H](O)[C@H](O)[C@H](O)CO [D-Glucosaminic Acid]	794.5821 RFU	
CCCC=C1OC(=O)c2ccccc21 [3-Butylidenephthalide]	952.6722 RFU	
Pseudoginsenoside F11	810.4484 RFU	
Cc1ncc(CO)c(CO)c1O.Cl [Pyridoxine (hydrochloride)]		911.6428 RFU and 799.8007 RFU
NC(=O)NCCCC[C@H](N)C(=O)O [L-Homocitrulline]	822.9997 RFU	
COc1ccccc1OC [1,2-Dimethoxybenzene]	1094.378 RFU and 752.9866 RFU	
O=P(O)(O)OP(=O)(O)O [Pyrophosphate]	1218.619 RFU and 873.0451 RFU	
O=C(O)c1ccc(O)nc1 [6-Hydroxynicotinic acid]	655.7069 RFU	
C/C(=C\CC[C@@H](C)[C@H]1CC[C@@]2(C)C3=CC[C@H]4C(C)(C)[C@@H](O)CC[C@]4(C)C3=CC[C@]12C)CO [Ganoderol B]	970.7443 RFU	
COc1ccc2c(c1OC)CN(C)CCc1cc3c(cc1C(=O)C2)OCO3 [Allocryptopine]	960.1838 RFU	
O=C(C=Cc1ccc(O)c(O)c1)OC1CC(C(=O)O)=CC(O)C1O (centres unmarked) [5-O-Caffeoylshikimic acid]	1072.132 RFU	
CC1(C)CC[C@]2(C(=O)O)CC[C@]3(C)C(=CC[C@@H]4[C@@]5(C)CC[C@@H](O)C(C)(C)[C@@H]5CC[C@]43C)[C@@H]2C1 [3-Epioleanolic acid]	1064.911 RFU	
O=c1ccc2ccc(O[C@@H]3O[C@H](CO)[C@@H](O)[C@H](O)[C@H]3O)cc2o1 [Skimmin]	1029.943 RFU	
CC1O[C@@H](OC[C@H]2O[C@@H](Oc3c(-c4ccc(O)cc4)oc4cc(O)cc(O)c4c3=O)C(O[C@@H]3O[C@H](C)[C@H](O)C(O)C3O)C(O)[C@H]2O)C(O)[C@@H](O)[C@H]1O (some centres unmarked) [Mauritianin]	860.4015 RFU	
COc1cc2ccc(=O)oc2c2ccoc12 [Sphondin]	913.6372 RFU	
CC1CCC(C(C)C)C(O)C1 (racemic) [DL-Menthol]	1275.242 RFU	
D-Pantothenic acid (hemicalcium salt)	932.4036 RFU	
CCCCC[C@H](O)/C=C/[C@H]1[C@H](O)CC(=O)[C@@H]1CCCCCCC(=O)O [Prostaglandin E1]	787.5664 RFU	
OC[C@@H](O)C(O)[C@H](O)CO [D-Arabitol]	977.3738 RFU and 986.8626 RFU	
Oc1cc(O)c2ccc(-c3ccc(O)c(O)c3)[o+]c2c1.[Cl-] [Luteolinidin (chloride)]	933.7809 RFU	
CC(C(=O)c1ccc(O)cc1O)c1ccc(O)cc1 (centres unmarked) [O-Desmethylangolensin]	864.3847 RFU	
C[C@@H]1O[C@@H](OC[C@H]2O[C@@H](Oc3c(-c4ccc(O)cc4)oc4cc(O)cc(O)c4c3=O)[C@H](O)[C@@H](O)[C@@H]2O)[C@H](O)[C@H](O)[C@H]1O [Nicotiflorin]	810.1075 RFU	
OC1C(O)C(O)C(O)C(O)C1O [D-chiro-Inositol]	896.4132 RFU	
Thiamine nitrate	1094.609 RFU and 1092.499 RFU	
CCCCCCCCO [Compound 1-Octanol]	882.5398 RFU	

Molecule	Lipase (RFU)	Lipase (RFU) ((hydrochloride))
C[C@H](CC(=O)C[C@@H](C)[C@H]1C[C@H](O)[C@@]2(C)C3=C(C(=O)C[C@]12C)[C@@]1(C)CCC(=O)C(C)(C)[C@@H]1C[C@@H]3O)C(=O)O [Ganoderic acid A]	685.8921 RFU	
O=C1C[C@@H](C(=O)O)NC(=O)N1 [L-Dihydroorotic acid]	1002.656 RFU	
OC[C@H]1O[C@@H]2O[C@H]3[C@H](O)[C@@H](O)[C@@H](O[C@H]4[C@H](O)[C@@H](O)[C@@H](O[C@H]5[C@H](O)[C@@H](O)[C@@H](O[C@H]6[C@H](O)[C@@H](O)[C@@H](O[C@H]7[C@H](O)[C@@H](O)[C@@H](O[C@H]8[C@H](O)[C@@H](O)[C@@H](O[C@H]1[C@H](O)[C@H]2O)O[C@@H]8CO)O[C@@H]7CO)O[C@@H]6CO)O[C@@H]5CO)O[C@@H]4CO)O[C@@H]3CO [β-Cyclodextrin]	886.2621 RFU	
CNC(C)(C)C(=O)O [MeAIB]	1061.964 RFU	
C=C[C@](C)(O)CC[C@H]1C(=C)CC[C@H]2C(C)(C)CCC[C@]12C [Manool]	923.6944 RFU	
O=C(/C=C/c1ccc(O)c(O)c1)O[C@@H]1CC(O)(C(=O)O)C[C@@H](OC(=O)/C=C/c2ccc(O)c(O)c2)C1O (some centres unmarked) [Isochlorogenic acid A]	827.6093 RFU	
CC(=O)C=Cc1ccccc1 [Benzylideneacetone]	1109.291 RFU	
O=C(O)C(O)Cc1ccc(O)cc1 (centres unmarked) [Hydroxyphenyllactic acid]	914.2115 RFU	
COc1cccc(C=O)c1 [m-Anisaldehyde]	1038.646 RFU	
C[N+](C)(C)CCOP(=O)(O)O [Phosphoryl Choline]	931.0385 RFU	
Cl.NCC(=O)CCC(=O)O [5-Aminolevulinic acid (hydrochloride)]	643.3591 RFU	
NC(=O)Cc1ccccc1 [Compound 2-Phenylacetamide, 2-Phenylacetamide]	955.8815 RFU	
COc1c(CC=C(C)C)c(O)cc2oc(=O)c3c4ccc(O)cc4oc3c12 [Neoglycyrol]	923.0229 RFU	
COc1cc(O[C@@H]2O[C@H](CO[C@@H]3O[C@H](CO)[C@@H](O)[C@H](O)[C@H]3O)[C@@H](O)[C@H](O)[C@H]2O)c2c(O)c3c(=O)oc(C)cc3cc2c1 [Cassiaside C]	979.0974 RFU	
C[C@H](O)CO [(S)-(+)-1,2-Propanediol]	1392.598 RFU	
CC1=C(C=O)C(C)(C)CC=C1 [Safranal]	1026.753 RFU and 1118.736 RFU	
Anacardic Acid	908.2535 RFU	
C[C@@H]1O[C@@H](O[C@H]2[C@H](O[C@H]3CC[C@]4(C)[C@H]5CC=C6[C@@H]7CC(C)(C)CC[C@]7(C(=O)O[C@@H]7O[C@H](CO[C@@H]8O[C@H](CO)[C@@H](O[C@@H]9O[C@@H](C)[C@H](O)[C@@H](O)[C@H]9O)[C@H](O)[C@H]8O)[C@@H](O)[C@H](O)[C@H]7O)CC[C@@]6(C)[C@]5(C)CC[C@H]4C3(C)C)OC[C@H](O)[C@@H]2O)[C@H](O)[C@H](O)[C@H]1O [Hederasaponin B]	619.4985 RFU	
CCN(Cc1cccc(S(=O)(=O)[O-])c1)c1ccc(C(=C2C=CC(=[N+](CC)Cc3cccc(S(=O)(=O)[O-])c3)C=C2)c2ccccc2S(=O)(=O)[O-])cc1.[Na+].[Na+] [Brilliant Blue FCF]	652.1115 RFU	
O=C(/C=C/c1ccc(O)c(O)c1)O[C@H]1[C@H](O)C[C@](O)(C(=O)O)C[C@H]1O [Cryptochlorogenic acid]	1264.679 RFU	
c1ccc2c(-c3nccs3)c[nH]c2c1 [Camalexin]	1018.047 RFU	
c1ccc2c(c1)CCO2 [Coumaran]	980.2989 RFU	
Nc1ncnc(N[C@@H]2O[C@H](CO)[C@@H](O)[C@H]2O)c1[N+](=O)[O-] [Clitocine]	1144.133 RFU	
Chondroitin Sulfate	348.836 RFU	

From patent US12507703B2, “Methods, devices and compositions for preserving human milk” (The Trustees of Princeton University, priority 2023, dated 2025)
